Test results reported in PubChem BioAssay AID977614 (Broad Institute, 2014).
Active and inactive are the calls of the source.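 The calls were made as follows: active = parasite count per well reduced by over 3 SD from the mean, with host cell number above 80% of untreated; inactive = the rest.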

What follows are compounds tested on L. donovani amastigotes in THP-1 macrophages, DAPI imaging, 72 h (assay: L. donovani intracellular amastigote growth inhibitors, imaging, THP-1 host macrophages, single concentration (AID 977614);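 also: signal is the parasite per host cell ratio from DAPI stained kinetoplasts and nuclei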).

SMILES | AC50
COc1ccc(CN(C)C[C@@H]2OCc3cnnn3CCCC(=O)N([C@H](C)CO)C[C@@H]2C)cc1 | > 10 µM (inactive)
COc1ccc(NC(=O)N(C)C[C@@H]2OCc3cnnn3CCCC(=O)N([C@@H](C)CO)C[C@@H]2C)c(OC)c1 | > 10 µM (inactive)
C[C@@H]1CN([C@H](C)CO)C(=O)CCCn2cc(nn2)CO[C@@H]1CN(C)C(=O)NC1CCCCC1 | > 10 µM (inactive)
O=C(Nc1ccccc1F)N1C[C@@H]2[C@H](c3ccccc31)[C@H](CO)N2C(=O)Cc1cccnc1 | > 10 µM (inactive)
COc1ccc(CN(C)C[C@H]2OCc3cnnn3CCCC(=O)N([C@@H](C)CO)C[C@H]2C)cc1 | > 10 µM (inactive)
CC(=O)N1[C@H](CO)[C@@H](c2ccccc2)[C@@H]1CN(CC(C)C)C(=O)c1ccccn1 | > 10 µM (inactive)
CCC(=O)N1C[C@H]2[C@@H](c3ccccc31)[C@H](CO)N2C(=O)CC1CC1 | > 10 µM (inactive)
CN(C[C@H]1[C@H](c2ccccc2)[C@@H](CO)N1CC1CC1)C(=O)c1ccc(F)cc1 | > 10 µM (inactive)
CC(=O)N1[C@H](CO)[C@H]2c3ccccc3N(S(=O)(=O)c3ccccc3C)C[C@H]21 | > 10 µM (inactive)
C[C@H]1CN([C@@H](C)CO)C(=O)CCCn2nncc2CO[C@@H]1CN(C)Cc1cccc2c1OCCCO2 | > 10 µM (inactive)
O=C(Nc1ccc(Cl)cc1)N1C[C@H]2[C@@H](c3ccccc31)[C@@H](CO)N2CC1CCCCC1 | > 10 µM (inactive)
COc1ccc(CN2[C@@H]3CN(C(=O)NC(C)C)c4ccccc4[C@@H]3[C@@H]2CO)cc1 | > 10 µM (inactive)
C[C@H]1CN([C@@H](C)CO)C(=O)CCCn2nncc2CO[C@@H]1CN(C)S(=O)(=O)c1cn(C)cn1 | > 10 µM (inactive)
O=C(NC[C@@H]1[C@H](c2ccccc2)[C@H](CO)N1Cc1ccccn1)C1CCCC1 | > 10 µM (inactive)
CCC(=O)N1[C@H](CN(CC)C(=O)c2cccc(F)c2)[C@H](c2ccccc2)[C@@H]1CO | > 10 µM (inactive)
COc1ccccc1NC(=O)N1C[C@H]2[C@@H](c3ccccc31)[C@H](CO)N2Cc1ccc2c(c1)OCO2 | > 10 µM (inactive)
CN1C[C@@H]2[C@H](c3ccccc31)[C@H](CO)N2Cc1ccccc1Cl | > 10 µM (inactive)
COCC(=O)NC[C@H]1[C@@H](c2ccccc2)[C@@H](CO)N1C(=O)c1ccccc1 | > 10 µM (inactive)
C[C@@H]1CN([C@@H](C)CO)C(=O)CCCn2nncc2CO[C@@H]1CN(C)Cc1ccc(C(=O)Nc2ccccc2N)cc1 | > 10 µM (inactive)
CNC[C@@H]1OCc2cnnn2CCCC(=O)N([C@H](C)CO)C[C@@H]1C | > 10 µM (inactive)
CN(C[C@@H]1N[C@H](CO)[C@@H]1c1ccc(C#CCC2CCCC2)cc1)S(C)(=O)=O | > 10 µM (inactive)
O=C(Nc1ccc(F)cc1)N1C[C@H]2[C@@H](c3ccccc31)[C@@H](CO)N2Cc1ccccc1Cl | > 10 µM (inactive)
O=C(C1CC1)N1C[C@H]2[C@@H](c3ccccc31)[C@H](CO)N2C(=O)c1ccccc1 | > 10 µM (inactive)
C[C@H]1CN([C@@H](C)CO)C(=O)CCCn2nncc2CO[C@H]1CN(C)C(=O)c1cc(-c2ccccc2)on1 | > 10 µM (inactive)
CCC(=O)N1[C@H](CO)[C@H](c2ccc(C#CC3CCCCC3)cc2)[C@@H]1CNC(C)C | > 10 µM (inactive)
C[C@H](CO)N1C[C@H](C)[C@H](CN(C)Cc2cccc3c2OCCCO3)OCc2cnnn2CCCC1=O | > 10 µM (inactive)

SMILES | AC50
O=C(c1ccc2c(c1)OCO2)N1C[C@H]2[C@@H](c3ccccc31)[C@@H](CO)N2Cc1cccnc1 | > 10 µM (inactive)
CC(=O)N(Cc1cccc(F)c1)C[C@@H]1[C@@H](c2ccccc2)[C@@H](CO)N1C(C)=O | > 10 µM (inactive)
COCCN(C[C@H]1N[C@H](CO)[C@@H]1c1ccccc1)C(=O)NC1CCCC1 | > 10 µM (inactive)
C[C@H](CO)N1C[C@H](C)[C@H](CN(C)C(=O)c2ccc(N3CCN(C)CC3)cc2)OCc2cn(nn2)CCCC1=O | > 10 µM (inactive)
C[C@@H]1CN([C@@H](C)CO)C(=O)CCCn2nncc2CO[C@@H]1CN(C)Cc1cccc2c1OCCCO2 | > 10 µM (inactive)
CCC(=O)N1[C@H](CO)[C@@H](c2ccccc2)[C@H]1CN(C)C(=O)CN1CCOCC1 | > 10 µM (inactive)
COc1ccc(CN(C)C[C@@H]2OCc3cnnn3CCCC(=O)N([C@@H](C)CO)C[C@@H]2C)cc1 | > 10 µM (inactive)
C[C@H]1CN([C@@H](C)CO)C(=O)CCCn2cc(nn2)CO[C@H]1CN(C)C(=O)CCC(F)(F)F | > 10 µM (inactive)
C[C@@H]1CN([C@@H](C)CO)C(=O)CCCn2cc(nn2)CO[C@H]1CN(C)S(=O)(=O)c1cccc(C#N)c1 | > 10 µM (inactive)
C[C@@H]1CN([C@@H](C)CO)C(=O)CCCn2nncc2CO[C@@H]1CN(C)CC1CCCCC1 | > 10 µM (inactive)
O=C(NC[C@H]1[C@H](c2ccccc2)[C@H](CO)N1Cc1ccccn1)C1CCCC1 | > 10 µM (inactive)
CCC(=O)N1[C@H](CO)[C@@H](c2ccccc2)[C@@H]1CN(C)C(=O)CN1CCOCC1 | > 10 µM (inactive)
C[C@@H]1CN([C@@H](C)CO)C(=O)CCCn2nncc2CO[C@H]1CN(C)Cc1ccccc1C(=O)O | > 10 µM (inactive)
O=C(c1ccc2c(c1)OCO2)N1C[C@@H]2[C@H](c3ccccc31)[C@@H](CO)N2C(=O)CC1CC1 | > 10 µM (inactive)
CCN(C[C@H]1N[C@H](CO)[C@@H]1c1ccccc1)C(=O)c1ccncc1 | > 10 µM (inactive)
COc1ccc(C(=O)N2C[C@H]3[C@@H](c4ccccc42)[C@H](CO)N3Cc2ccccc2Cl)cc1 | > 10 µM (inactive)
C/C=C/c1ccc([C@H]2[C@@H](CO)N(C(C)=O)[C@H]2CN(C(C)=O)C2CCCC2)cc1 | > 10 µM (inactive)
CC(C)NC(=O)N1[C@H](CNC(=O)CN(C)C)[C@@H](c2ccccc2)[C@@H]1CO | > 10 µM (inactive)
C[C@H](CO)N1C[C@H](C)[C@H](CN(C)Cc2ccccc2C(=O)O)OCc2cnnn2CCCC1=O | > 10 µM (inactive)
O=C(C1CCOCC1)N1C[C@@H]2[C@H](c3ccccc31)[C@@H](CO)N2C(=O)Cc1ccccn1 | > 10 µM (inactive)
COCC(=O)N(C[C@H]1N[C@H](CO)[C@@H]1c1ccc(-c2cncnc2)cc1)C(C)C | > 10 µM (inactive)
O=C(NC[C@H]1N[C@@H](CO)[C@H]1c1ccc(-c2ccccc2F)cc1)c1ccccn1 | > 10 µM (inactive)
C[C@H]1CN([C@@H](C)CO)C(=O)CCCn2cc(nn2)CO[C@H]1CN(C)C(=O)c1ccc(N2CCN(C)CC2)cc1 | > 10 µM (inactive)
CC(C)NC(=O)N1[C@H](CO)[C@H]2c3ccccc3N(C)C[C@H]21 | > 10 µM (inactive)
Cc1cccc(S(=O)(=O)N2C[C@H]3[C@@H](c4ccccc42)[C@@H](CO)N3CC2CCCC2)c1 | > 10 µM (inactive)
O=C(C1CCCCC1)N1[C@@H]2CN(S(=O)(=O)c3ccccc3)c3ccccc3[C@@H]2[C@@H]1CO | > 10 µM (inactive)

SMILES | AC50
COCC(=O)N(C[C@H]1[C@H](c2ccccc2)[C@@H](CO)N1C(=O)NC(C)C)C(C)C | > 10 µM (inactive)
CCN(C[C@H]1[C@H](c2ccccc2)[C@H](CO)N1CC1CC1)C(=O)c1ccccn1 | > 10 µM (inactive)
CC(=O)N1[C@H](CO)[C@@H](c2ccccc2)[C@@H]1CN(CC1CCC1)C(=O)CN(C)C | > 10 µM (inactive)
C[C@H]1CN([C@@H](C)CO)C(=O)CCCn2nncc2CO[C@@H]1CN(C)C(=O)Nc1ccc(-c2cccs2)cc1 | > 10 µM (inactive)
C[C@@H]1CN([C@H](C)CO)C(=O)CCCn2cc(nn2)CO[C@H]1CN(C)C(=O)CCC(F)(F)F | > 10 µM (inactive)
C[C@@H]1CN([C@@H](C)CO)C(=O)CCCn2cc(nn2)CO[C@@H]1CN(C)C(=O)c1ccc(N2CCN(C)CC2)cc1 | > 10 µM (inactive)
OC[C@H]1[C@H]2c3ccccc3NC[C@H]2N1Cc1ccccc1Cl | > 10 µM (inactive)
CN(C[C@H]1N[C@@H](CO)[C@H]1c1ccc(-c2ccc(F)cc2)cc1)C(=O)C1CCC1 | > 10 µM (inactive)
O=C(Nc1cccc(Cl)c1)N1C[C@@H]2[C@H](c3ccccc31)[C@H](CO)N2Cc1cccnc1 | > 10 µM (inactive)
O=C(Cc1ccccn1)N1[C@@H]2CNc3ccccc3[C@@H]2[C@@H]1CO | > 10 µM (inactive)
Cc1noc(C)c1S(=O)(=O)N(C)C[C@H]1OCc2cnnn2CCCC(=O)N([C@@H](C)CO)C[C@H]1C | > 10 µM (inactive)
C[C@@H]1CN([C@@H](C)CO)C(=O)CCCn2cc(nn2)CO[C@@H]1CN(C)Cc1ccccc1 | > 10 µM (inactive)
O=C(Cc1ccccc1)N1C[C@@H]2[C@H](c3ccccc31)[C@H](CO)N2S(=O)(=O)c1ccccc1 | > 10 µM (inactive)
CC(=O)N(Cc1cccc(F)c1)C[C@H]1[C@@H](c2ccccc2)[C@@H](CO)N1C(C)=O | > 10 µM (inactive)
C[C@H](CO)N1C[C@H](C)[C@H](CN(C)Cc2cccc(C(F)(F)F)c2)OCc2cnnn2CCCC1=O | > 10 µM (inactive)
CN1C[C@@H]2[C@H](c3ccccc31)[C@H](CO)N2C(=O)c1cccnc1 | > 10 µM (inactive)
O=C(c1ccc2c(c1)OCO2)N1C[C@H]2[C@@H](c3ccccc31)[C@H](CO)N2Cc1cccnc1 | > 10 µM (inactive)
COc1cccc(C(=O)N2C[C@@H]3[C@H](c4ccccc42)[C@H](CO)N3C(=O)c2cccc(F)c2)c1 | > 10 µM (inactive)
C/C=C/c1ccc([C@@H]2[C@@H](CO)N(C(C)=O)[C@@H]2CNC(=O)c2ccccc2)cc1 | > 10 µM (inactive)
CN1C[C@@H]2[C@H](c3ccccc31)[C@@H](CO)N2C(=O)C1CCOCC1 | > 10 µM (inactive)
CN(C[C@H]1N[C@@H](CO)[C@@H]1c1ccc(C2=CCCC2)cc1)C(=O)c1cccc(F)c1 | > 10 µM (inactive)
C/C=C/c1ccc([C@@H]2[C@@H](CO)N(C(C)=O)[C@H]2CN(CC)C(=O)CN(C)C)cc1 | > 10 µM (inactive)
O=C(Cc1cccnc1)N1[C@H](CNCC2CCC2)[C@H](c2ccccc2)[C@@H]1CO | > 10 µM (inactive)
CN(C[C@H]1N[C@@H](CO)[C@H]1c1ccc(-c2cccc(F)c2)cc1)C(=O)CC1CC1 | > 10 µM (inactive)
